The numbers were not newly measured in PMC10386414 (Molecules, 2023), which cites them from elsewhere.

For series [1] the following is noted: earlier work, reference not given.
Series [2] has as its system MOR. More on the design: method as in PMID 17625813. The conditions noted are these: receptor binding assay.
Series [3] deals with MOR. Also on record: method as in PMID 33479684. The conditions noted are these: cAMP assay, acted as a partial agonist.
Details of series [4]: method as in PMID 37381112. The conditions noted are these: in vivo.
On the set-up of series [5]: method as in PMID 37381112. The conditions noted are these: depending on the animal species used and the pain stimulus.

On to `Oc1cccc(C23CCCC(C2O)N(CCc2ccccc2)CC3)c1` [1R,5R,9S-OH compound], for which the “potency in vivo relative to morphine” value in series [1] is listed as “about 500 times”. Moreover, in the series on MOR [2], the MOR affinity result is “sub-nanomolar”.
`CCC[C@H]1[C@@H]2CCC[C@@]1(c1cccc(O)c1)CCN2CCc1ccccc1` [compound 16]: the “%Emax (efficacy)” value with MOR [3] is recorded as 45%. Also, the EC50 with MOR [3] (read-out: EC50 (potency)) is 1.42 nM. The locomotor effects entry in series [4] was “unlike morphine in its locomotor effects”. Besides, the antinociceptive activity result in series [5] is listed as “some antinociceptive activity”.
